Measurements taken from US20170189417A1, “PHARMACEUTICAL COMPOSITION FOR TREATING COLORECTAL CANCER” (MA SHEN KAI RUEI CO., LTD., priority 2015, published 2017).
“Also recorded” adds a separate entry of the source.

Legend:
[1] = test system: human colorectal-cancer cells HT-29; assay: MTT ex vivo survival assay, HT-29; assay type: cell-based; conditions: HT-29 cell line; for half-maximal inhibitory concentration (IC50): isolated agents, stated in words only
Procedure: (§1) The Antroquinonol B (AnQB) and Zhankuic acid D (ZhAD) separately isolated from the Extraction A of Example 1 were added into the culture media of human colorectal-cancer cells, HT-29 or SW-480, to test for tumor cell survival by using anti-cancer drug screen model. This survival assay was carried out with the widely known MTT (3-[4,5-dimethylthiazol-2-yl]2,5-diphenyltetrazolium bromide) assay.
(§2) HT-29 cell line (purchased from ATCC) is a human colorectal adenocarcinoma cell line with epithelial morphology. These cells are sensitive to the chemotherapeutic drugs 5-fluorouracil and oxaliplatin, which are standard treatment options for colorectal cancer. In addition to being a xenograft tumor model for colorectal cancer, the HT-29 cell line is also used as an in-vitro model to study survival assay. And the other one, SW-480 is Dukes' type B, colorectal adenocarcinoma which is a difficult tumor with a low survival rate.
(§3) The human colorectal-cancer cells, HT-29 and SW-480 were cultivated in media containing fetal calf serum for 18 hours. The proliferated cells were washed once with PBS, then treated with 1× trypsin-EDTA and centrifuged at 1200 rpm for 45 minutes. The supernatant was discarded and the cell pellet was re-suspended in […] of fresh culture medium by gently shaking. The cells were placed in a 96-well plate.
(§4) Subsequently, the plates were read on an ELISA reader to determine the survival rates. The half maximal inhibitory concentration (IC50) values were calculated and results of ex vivo survival assay were thus obtained.
(§5) By using the same manner as the method described above, respectively human colorectal cancer cell line HT-29 and Sw-480 was cultured. After then, the pharmaceutical compositions A˜F of the present invention was applied separately, and then MTT assay for each sample was measured to assess the inhibition effectiveness of various cancer cell activity while using pharmaceutical compositions A˜F of the present invention.

[2] = test system: human colorectal-cancer cells SW-480; assay: MTT ex vivo survival assay, SW-480; assay type: cell-based; conditions: SW-480 cell line; for half-maximal inhibitory concentration (IC50): isolated agents, stated in words only
Procedure: as §1, §2, §3, §4, §5

| Compound | tumor cell survival rate / growth inhibition (MTT assay) [1] | half-maximal inhibitory concentration (IC50) [1] | tumor cell survival rate / growth inhibition (MTT assay) [2] | half-maximal inhibitory concentration (IC50) [2] |
| --- | --- | --- | --- | --- |
| C=C(CC[C@@H](C(=O)O)[C@H]1CC[C@@]2(C)C3=CC[C@H]4C(C)(C)[C@@H](O)CC[C@]4(C)C3=CC[C@]12C)C(C)C | can inhibit the growth of colorectal cancer cell; also recorded: can decrease the survival rates | relatively low | can inhibit the growth of colorectal cancer cell; also recorded: can decrease the survival rates | relatively low |
| COC1=C(OC)[C@H](O)[C@H](C/C=C(\C)CC/C=C(/C)C/C=C/C(C)(C)O)[C@@H](C)C1=O [Antroquinonol B] | can inhibit the growth of colorectal cancer cell; also recorded: can decrease the survival rates | relatively low | can inhibit the growth of colorectal cancer cell; also recorded: can decrease the survival rates | relatively low |
